Here are results for eleven molecules from ChEMBL document CHEMBL1201862, “PubChem BioAssay data set” (2004).

Test systems include UACC-62; HCC 2998; Malme-3M; MDA-MB-231; LOX IMVI; NCI-H226; OVCAR-5; MDA-N; HCT-15; SF-295; HT-29; RPMI-8226; SK-MEL-28; CAKI-1; ACHN; BT-549; MCF7; SNB-19; SK-OV-3; M14.
Holding throughout (test): NCI-60 cell line screen, 48 h

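Each compound was tested at five concentrations against cells in 96-well plates for 48 hours. At the GI50, growth is halved.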 Activity calls are given as the source filed them. No stated cut-off is given here; in the data, active = GI50 up to about 1.1 µM and inactive = higher. A value given as a limit tells only on which side of the number the result lay.

On to `C=C1CCC2CC1[C@@H](C(=O)c1c[nH]c3ccccc13)NC2(C)C` (stereo not given in full), for which the GI50 with UACC-62 was 18.7 µM (inactive); in the experiment on HCC 2998, 10.7 µM (inactive); in the experiment on Malme-3M it was > 37.5 µM (inactive); in the experiment on MDA-MB-231 it was > 37.5 µM (inactive); with LOX IMVI, > 37.5 µM (inactive); in the experiment with NCI-H226, > 37.5 µM (inactive). Further, the GI50 was > 37.5 µM (inactive) with OVCAR-5; > 37.5 µM (inactive) in the experiment on MDA-N; over 37.5 µM with HCT-15; > 37.5 µM (inactive) in the experiment on SF-295; 29.7 µM (inactive) in the experiment with HT-29; > 37.5 µM (inactive) in the experiment with RPMI-8226. Moreover, the GI50 with SK-MEL-28 is > 37.5 µM (inactive); in the experiment on CAKI-1, 8.51 µM (inactive); with ACHN, > 37.5 µM (inactive); with BT-549, > 37.5 µM (inactive); in the experiment with MCF7, > 37.5 µM (inactive).

Regarding `CCOc1ccc2c(c1)/C(=C(\C(Cl)=C(Cl)Cl)[N+](=O)[O-])N2`, the GI50 in the experiment on UACC-62, in the experiment on SNB-19, with HCC 2998, in the experiment with Malme-3M, in the experiment with MDA-MB-231 and in the experiment with NCI-H226 was > 100 µM (inactive) each time. The GI50 with OVCAR-5 is > 100 µM (inactive); in the experiment on MDA-N, > 100 µM (inactive); in the experiment with HCT-15 it was over 100 µM; in the experiment on SF-295 it was > 100 µM (inactive); in the experiment on HT-29, > 100 µM (inactive); with SK-OV-3 it was > 100 µM (inactive). Further, the GI50 in the experiment on RPMI-8226 is 69.3 µM (inactive); with SK-MEL-28 it was > 100 µM (inactive); in the experiment on CAKI-1, > 100 µM (inactive); with ACHN it was > 100 µM (inactive); with BT-549, 28.2 µM (inactive); with M14 it was > 100 µM (inactive). The GI50 in the experiment on MCF7 was > 100 µM (inactive).

On to `N=C(/C=C/c1ccc(-c2cn3cc(/C=C/C(=N)N4CCCC4)ccc3n2)cc1)N1CCCC1`, for which the GI50 in the experiment on UACC-62 was > 100 µM (inactive); in the experiment with SNB-19, > 100 µM (inactive); with HCC 2998, > 100 µM (inactive); with Malme-3M it was 27 µM (inactive); in the experiment with MDA-MB-231, > 100 µM (inactive); with NCI-H226 it was > 100 µM (inactive). In addition, the GI50 with OVCAR-5 is > 100 µM (inactive); in the experiment on MDA-N it was > 100 µM (inactive); with HCT-15, over 100 µM; in the experiment with SF-295, > 100 µM (inactive); in the experiment with SK-OV-3 it was > 100 µM (inactive); in the experiment with RPMI-8226, > 100 µM (inactive). Further, the GI50 in the experiment with SK-MEL-28 is > 100 µM (inactive); in the experiment with CAKI-1, > 100 µM (inactive); with ACHN it was 68.9 µM (inactive); in the experiment on BT-549, > 100 µM (inactive); with M14, > 100 µM (inactive); in the experiment with MCF7, > 100 µM (inactive).

Consider `Cc1cc(O)c2c(c1O)C(=O)c1c(O)ccc(O)c1C2=O` [Cynodontin], for which the GI50 in the experiment with UACC-62, in the experiment on SNB-19, in the experiment on HCC 2998, in the experiment on Malme-3M, in the experiment on MDA-MB-231 and in the experiment on LOX IMVI was > 100 µM (inactive) throughout. The GI50 in the experiment on NCI-H226 is > 100 µM (inactive); in the experiment with OVCAR-5, > 100 µM (inactive); with MDA-N it was > 100 µM (inactive); in the experiment with HCT-15, over 100 µM; with SF-295, > 100 µM (inactive); in the experiment on HT-29, > 100 µM (inactive). Moreover, the GI50 in the experiment on SK-OV-3, with RPMI-8226, in the experiment on CAKI-1, in the experiment on ACHN, in the experiment on BT-549 and in the experiment with M14 was > 100 µM (inactive) each time. The GI50 in the experiment with MCF7 was > 100 µM (inactive).

`CC#Cc1cc2c(cc1O)CC[C@@H]1[C@@H]2CC[C@]2(C)[C@@H](O)CC[C@@H]12`: the GI50 is 2.4 µM (inactive) in the experiment with SNB-19; 5.89 µM (inactive) with HCC 2998; 0.582 µM (active) in the experiment on Malme-3M; 8.18 µM (inactive) in the experiment on MDA-MB-231; 0.94 µM (active) in the experiment with LOX IMVI; 2.8 µM (inactive) in the experiment with NCI-H226. For the same molecule, the GI50 in the experiment with OVCAR-5 was 17.9 µM (inactive); in the experiment on MDA-N it was 0.178 µM (active); with HCT-15, 0.34 µM; with SF-295, 0.406 µM (active); in the experiment on HT-29, 13.8 µM (inactive); with SK-OV-3, 1.81 µM (inactive). For the same molecule, the GI50 in the experiment with RPMI-8226 is 1.61 µM (inactive); in the experiment with SK-MEL-28, 7.36 µM (inactive); with CAKI-1, 0.766 µM (active); with ACHN, 6.17 µM (inactive); in the experiment on BT-549 it was 11.9 µM (inactive); in the experiment with M14 it was 0.521 µM (active). The GI50 with MCF7 was 0.685 µM (active).

As to `CC(=O)NC1C(OCc2ccccc2)OC(CO)C(O)C1OCC(=O)N[C@@H](C)C(=O)N[C@H](CCC(=O)NCCNCCNc1c2ccccc2nc2cccc([N+](=O)[O-])c12)C(N)=O` (stereo not given in full), the GI50 in the experiment on UACC-62 was 17.7 µM (inactive); with SNB-19 it was 38.9 µM (inactive); in the experiment with HCC 2998, 6.52 µM (inactive); in the experiment on Malme-3M, 19.2 µM (inactive); in the experiment with MDA-MB-231 it was 34.8 µM (inactive); in the experiment on LOX IMVI it was 23.5 µM (inactive). Further, the GI50 with OVCAR-5 is 53.3 µM (inactive); in the experiment with MDA-N, 33.1 µM (inactive); in the experiment on HCT-15, 22.6 µM; with SF-295, 57.4 µM (inactive); in the experiment on HT-29 it was 23.6 µM (inactive); in the experiment with SK-OV-3, 78.5 µM (inactive). For the same molecule, the GI50 with RPMI-8226 is 24.4 µM (inactive); in the experiment on SK-MEL-28, > 100 µM (inactive); in the experiment on CAKI-1, 22.6 µM (inactive); in the experiment on ACHN it was 26.7 µM (inactive); in the experiment with BT-549, > 10 µM (inactive); in the experiment with M14, 56 µM (inactive). The GI50 in the experiment with MCF7 was 37.9 µM (inactive).

As to `O=C1/C(=C/c2ccc(Br)s2)NC(=S)N1CN1CCCCC1`, the GI50 is 26.6 µM (inactive) in the experiment on UACC-62; 46.9 µM (inactive) in the experiment on SNB-19; 31 µM (inactive) with HCC 2998; 58.7 µM (inactive) in the experiment on Malme-3M; 62.4 µM (inactive) with MDA-MB-231; 21.5 µM (inactive) in the experiment on LOX IMVI. The GI50 in the experiment with NCI-H226 was 32 µM (inactive); in the experiment with OVCAR-5, 76.6 µM (inactive); in the experiment on MDA-N, 33.9 µM (inactive); in the experiment with HCT-15, 27.9 µM; in the experiment on SF-295, 30.5 µM (inactive); with HT-29 it was 33.2 µM (inactive). Further, the GI50 in the experiment on RPMI-8226 was 17.6 µM (inactive); with SK-MEL-28, 41.1 µM (inactive); with CAKI-1, 32.4 µM (inactive); in the experiment on ACHN it was 46 µM (inactive); in the experiment on BT-549 it was 25.9 µM (inactive); with MCF7, 20.6 µM (inactive).

In the case of `CCOC(=O)c1cc2cc3c4c(c2oc1=O)CCCN4CCC3`, the GI50 with SNB-19 was 42.6 µM (inactive); with HCC 2998, 78.9 µM (inactive); in the experiment with Malme-3M it was 49.3 µM (inactive); in the experiment on MDA-MB-231, 22.3 µM (inactive); in the experiment on LOX IMVI, 26.1 µM (inactive); with NCI-H226, 14.7 µM (inactive). Also, the GI50 was > 100 µM (inactive) in the experiment with OVCAR-5; 37.2 µM (inactive) in the experiment with MDA-N; 25.2 µM in the experiment with HCT-15; 40.4 µM (inactive) with SF-295; 31.8 µM (inactive) with HT-29; 19.3 µM (inactive) in the experiment with RPMI-8226. Besides, the GI50 in the experiment on SK-MEL-28 is 43.4 µM (inactive); in the experiment on CAKI-1, 47.3 µM (inactive); with ACHN, 34 µM (inactive); with BT-549, 31.4 µM (inactive); in the experiment with M14, 32.3 µM (inactive); in the experiment on MCF7 it was 23.2 µM (inactive).

As for `CSc1nc(NC(C)C)c2c(n1)Sc1nc3ccccc3n1C2O` (stereo not given), the GI50 is 5.55 µM (inactive) in the experiment with HCC 2998; 1.98 µM (inactive) with Malme-3M; 9.14 µM (inactive) in the experiment with MDA-MB-231; 7 µM (inactive) with LOX IMVI; 2.75 µM (inactive) in the experiment with MDA-N; 4.1 µM in the experiment on HCT-15. Moreover, the GI50 was 3.45 µM (inactive) in the experiment on SF-295; 3.09 µM (inactive) in the experiment with HT-29; 5.28 µM (inactive) with SK-OV-3; 0.0432 µM (active) in the experiment with RPMI-8226; 3.34 µM (inactive) with SK-MEL-28; 82.4 µM (inactive) in the experiment on CAKI-1. Also, the GI50 was 7.93 µM (inactive) in the experiment with ACHN, 6.79 µM (inactive) in the experiment on BT-549, 5.96 µM (inactive) with M14 and 0.0465 µM (active) in the experiment on MCF7.

Consider `Cc1ccc2nc(-c3ccccc3)cc(=O)n2c1`, for which the GI50 in the experiment on UACC-62 was > 100 µM (inactive); in the experiment on SNB-19, > 100 µM (inactive); in the experiment with HCC 2998 it was > 100 µM (inactive); with Malme-3M it was > 100 µM (inactive); in the experiment with MDA-MB-231, > 100 µM (inactive); in the experiment with NCI-H226, 64.6 µM (inactive). For the same molecule, the GI50 in the experiment with OVCAR-5 was > 100 µM (inactive); in the experiment with MDA-N, > 100 µM (inactive); with HCT-15, over 100 µM; in the experiment with SF-295, > 100 µM (inactive); with HT-29, > 100 µM (inactive); with SK-OV-3, > 100 µM (inactive). In addition, the GI50 in the experiment with RPMI-8226, in the experiment on SK-MEL-28, in the experiment with ACHN, in the experiment with BT-549, in the experiment with M14 and in the experiment on MCF7 was > 100 µM (inactive) each time.

As for `CCN(CC)CCC(=O)O[C@H]1CC[C@H](CC(C)[C@H]2CC(=O)C(C)C=C(C)[C@H](OC(=O)CCN(CC)CC)C(OC)C(=O)[C@@H](C)CC(C)/C=C/C=C/C=C(C)C(OC)CC3CC[C@H](C)[C@](O)(O3)C(=O)C(=O)N3CCCCC3C(=O)O2)CC1OC` (stereo not given in full), the GI50 in the experiment on UACC-62 was 0.0448 µM (active); in the experiment with SNB-19, 0.0571 µM (active); in the experiment with HCC 2998 it was 0.267 µM (active); in the experiment on Malme-3M, < 0.0108 µM (active); with MDA-MB-231, 0.228 µM (active); with LOX IMVI, 0.0222 µM (active). Moreover, the GI50 was 0.0209 µM (active) with NCI-H226; 1.31 µM (inactive) in the experiment on OVCAR-5; 0.294 µM (active) with MDA-N; 0.137 µM in the experiment with HCT-15; 0.0218 µM (active) in the experiment with SF-295; 0.21 µM (active) in the experiment on HT-29. The GI50 is 0.0314 µM (active) with SK-OV-3; 0.0284 µM (active) in the experiment on SK-MEL-28; 0.108 µM (active) in the experiment on CAKI-1; 0.348 µM (active) in the experiment on ACHN; < 0.01 µM (active) in the experiment with BT-549; 0.35 µM (active) in the experiment on M14. In the experiment on MCF7, the GI50 was < 0.026 µM (active).
